Earlier results, collected in patent US20080131879A1, “Detection of Subjects at Risk For Chd By a Genotype Evaluation Associated With Serum Plant Sterols Enabling Individualized (Drug) Treatment on Demand” (University Van Maastricht, priority 2004, published 2008).

Details: intestinal absorption from diet

CC[C@H](CC[C@@H](C)[C@H]1CC[C@H]2[C@@H]3CC=C4C[C@@H](O)CC[C@]4(C)[C@H]3CC[C@]12C)C(C)C [sitosterol]
Absorption: 0.51%

CC(C)[C@H](C)CC[C@@H](C)[C@H]1CC[C@H]2[C@@H]3CC=C4C[C@@H](O)CC[C@]4(C)[C@H]3CC[C@]12C [campesterol]
Absorption: 1.89%
